Data: patent US20250195521A1 (Revolution Medicines, Inc., priority 2020, published 2025)
Like-named read-outs stand apart in the source and are kept apart here.

Legend:
KRAS G13D = KRAS G13D (Homo sapiens (Human), UniProt P01116+P62937, G13D); experiment: Ras-Raf disruption/FRET/MOA assay, KRAS G13D; assay type: biochemical
Excerpt: (§1) Disruption of B-Raf Ras-Binding Domain (BRAF^RBD) Interaction with K-Ras by Compounds of the Invention (Also Called a FRET Assay or an MOA Assay)
(§2) Note—The following protocol describes a procedure for monitoring disruption of K-Ras G12C (GMP-PNP) binding to BRAF^RBD by a compound of the invention. This protocol may also be executed substituting other Ras proteins or nucleotides, such as K-Ras G12D and K-Ras G13D.
(§3) The purpose of this biochemical assay was to measure the ability of test compounds to facilitate ternary complex formation between a nucleotide-loaded K-Ras isoform and Cyclophilin A; the resulting ternary complex disrupts binding to a BRAF^RBD construct, inhibiting K-Ras signaling through a RAF effector. Data is reported as IC50 values.
(§4) In assay buffer containing 25 mM HEPES pH 7.3, 0.002% Tween20, 0.1% BSA, 100 mM NaCl and 5 mM MgCl2, tagless Cyclophilin A, His6-K-Ras-GMPPNP, and GST-BRAF^RBD were combined in a 384-well assay plate at final concentrations of 25 μM, 12.5 nM, and 50 nM, respectively. Compound was present in plate wells as a 10-point 3-fold dilution series starting at a final concentration of 30 μM. After incubation at 25° C. for 3 hours, a mixture of anti-His Eu—W1024 and anti-GST allophycocyanin was then added to assay sample wells at final concentrations of 10 nM and 50 nM, respectively, and the reaction incubated for an additional 1.5 hours. […] Compounds that facilitate disruption of a K-Ras: RAF complex were identified as those eliciting a decrease in the TR-FRET ratio relative to DMSO control wells.

KRAS G12C = KRAS G12C (Homo sapiens (Human), UniProt P01116+P62937, G12C); experiment: Ras-Raf disruption/FRET/MOA assay, KRAS G12C; assay type: biochemical
Excerpt: as §1, §2, §3, §4

NRAS G12C = NRAS G12C (Homo sapiens (Human), UniProt P01111+P62937, G12C); experiment: Ras-Raf disruption/FRET/MOA assay, NRAS G12C; assay type: biochemical
Excerpt: as §1, §2, §3, §4

KRAS G12D = KRAS G12D (Homo sapiens (Human), UniProt P01116+P62937, G12D); experiment: Ras-Raf disruption/FRET/MOA assay, KRAS G12D; assay type: biochemical
Excerpt: as §1, §2, §3, §4

AsPC-1 (K-Ras G12D) [1] = experiment: Potency assay: pERK; assay type: cell-based, human; settings: Homo sapiens, ASPC1, read-out: pERK EC50
Summary of the method: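 Cells plated overnight, then exposed 4 h at 37 °C to 10-point 3-fold dilutions of compound, in duplicate. pERK read by AlphaLISA SureFire Ultra p-ERK1/2 lysate assay or by In-Cell Western (pERK antibody, DRAQ5 DNA normalisation). IC50 from 4-parameter sigmoidal fit of signal vs log concentration.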

KRAS G12S = KRAS G12S (Homo sapiens (Human), UniProt P01116+P62937, G12S); experiment: Ras-Raf disruption/FRET/MOA assay, KRAS G12S; assay type: biochemical
Excerpt: as §1, §2, §3, §4

AsPC-1 (K-Ras G12D) [2] = experiment: CellTiter-Glo cell viability assay, AsPC-1; assay type: cell-based, human; settings: Homo sapiens, ASPC1, 120 h, read-out: AsPC-1 Cell Viability IC50
Summary of the method: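 Compounds dispensed directly onto seeded K-Ras mutant cells; plates read on day 5 after ~30 min equilibration to room temperature, by CellTiter-Glo luminescence. Signal normalized as (sample/mean DMSO)×100, then fitted to a four-parameter logistic curve.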

KRAS G13C = KRAS G13C (Homo sapiens (Human), UniProt P01116+P62937, G13C); experiment: Ras-Raf disruption/FRET/MOA assay, KRAS G13C; assay type: biochemical
Excerpt: as §1, §2, §3, §4

KRAS WT = KRAS WT (Homo sapiens (Human), UniProt P01116+P62937); experiment: Ras-Raf disruption/FRET/MOA assay, KRAS WT; assay type: biochemical
Excerpt: as §1, §2, §3, §4

KRAS G12V = KRAS G12V (Homo sapiens (Human), UniProt P01116+P62937, G12V); experiment: Ras-Raf disruption/FRET/MOA assay, KRAS G12V; assay type: biochemical
Excerpt: as §1, §2, §3, §4

[3] = read-out: KRAS G12C FRET data IC50
[4] = read-out: NRAS G12C FRET data IC50

KRAS G12D, sequence (P01116 other isoform, or with tags, fused parts or gaps G12D): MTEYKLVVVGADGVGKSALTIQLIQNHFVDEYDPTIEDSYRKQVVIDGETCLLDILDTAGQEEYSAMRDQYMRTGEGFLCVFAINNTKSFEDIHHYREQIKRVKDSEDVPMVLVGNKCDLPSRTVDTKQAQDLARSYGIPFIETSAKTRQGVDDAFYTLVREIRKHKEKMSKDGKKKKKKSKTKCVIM
KRAS G12D, sequence (P62937 whole entry): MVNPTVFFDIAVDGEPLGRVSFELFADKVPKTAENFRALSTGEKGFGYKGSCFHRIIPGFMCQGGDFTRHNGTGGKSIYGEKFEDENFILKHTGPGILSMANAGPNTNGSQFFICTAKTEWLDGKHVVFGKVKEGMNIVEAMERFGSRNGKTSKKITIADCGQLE
NRAS G12C, sequence (P01111 whole entry G12C): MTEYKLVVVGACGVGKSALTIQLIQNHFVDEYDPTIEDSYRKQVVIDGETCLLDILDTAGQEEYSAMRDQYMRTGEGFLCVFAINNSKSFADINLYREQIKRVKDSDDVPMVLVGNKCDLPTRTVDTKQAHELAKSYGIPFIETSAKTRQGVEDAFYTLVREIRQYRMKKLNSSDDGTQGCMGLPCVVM
NRAS G12C, sequence (P62937 whole entry): as the sequence (P62937 whole entry) above
KRAS G13D, sequence (P01116 other isoform, or with tags, fused parts or gaps G13D): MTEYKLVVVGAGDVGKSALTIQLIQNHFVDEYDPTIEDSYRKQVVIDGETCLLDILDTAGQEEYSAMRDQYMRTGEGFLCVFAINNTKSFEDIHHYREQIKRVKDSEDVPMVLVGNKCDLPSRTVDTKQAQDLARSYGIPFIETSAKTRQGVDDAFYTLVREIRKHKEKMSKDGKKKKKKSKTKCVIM
KRAS G13D, sequence (P62937 whole entry, the tested form may be a part): as the sequence (P62937 whole entry) above
KRAS G13C, sequence (P01116 other isoform, or with tags, fused parts or gaps G13C): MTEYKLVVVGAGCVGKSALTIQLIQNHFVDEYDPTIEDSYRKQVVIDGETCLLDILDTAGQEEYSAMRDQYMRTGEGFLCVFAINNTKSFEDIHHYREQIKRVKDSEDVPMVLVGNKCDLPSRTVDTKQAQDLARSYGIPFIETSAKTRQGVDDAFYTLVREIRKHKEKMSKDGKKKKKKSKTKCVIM
KRAS G13C, sequence (P62937 whole entry): as the sequence (P62937 whole entry) above
KRAS WT, sequence (P01116 other isoform, or with tags, fused parts or gaps): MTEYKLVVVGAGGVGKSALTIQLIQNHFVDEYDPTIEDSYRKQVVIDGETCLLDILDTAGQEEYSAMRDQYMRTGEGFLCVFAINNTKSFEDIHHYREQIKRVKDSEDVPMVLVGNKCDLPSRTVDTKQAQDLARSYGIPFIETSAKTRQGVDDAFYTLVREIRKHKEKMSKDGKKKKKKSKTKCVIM
KRAS WT, sequence (P62937 whole entry): as the sequence (P62937 whole entry) above
KRAS G12C, sequence (P01116-2 other isoform, or with tags, fused parts or gaps G12C): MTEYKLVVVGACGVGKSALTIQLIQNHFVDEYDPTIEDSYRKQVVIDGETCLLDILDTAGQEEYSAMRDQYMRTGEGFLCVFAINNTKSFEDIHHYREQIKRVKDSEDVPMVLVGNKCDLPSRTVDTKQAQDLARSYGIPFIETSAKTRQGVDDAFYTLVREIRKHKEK
KRAS G12C, sequence (P62937 whole entry): as the sequence (P62937 whole entry) above
KRAS G12S, sequence (P01116 other isoform, or with tags, fused parts or gaps G12S): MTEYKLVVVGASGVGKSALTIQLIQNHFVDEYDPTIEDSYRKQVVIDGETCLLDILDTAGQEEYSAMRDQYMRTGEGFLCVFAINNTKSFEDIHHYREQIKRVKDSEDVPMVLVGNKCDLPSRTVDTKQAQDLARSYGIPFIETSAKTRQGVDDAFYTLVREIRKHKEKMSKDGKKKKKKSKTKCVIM
KRAS G12S, sequence (P62937 whole entry): as the sequence (P62937 whole entry) above
KRAS G12V, sequence (P01116 other isoform, or with tags, fused parts or gaps G12V): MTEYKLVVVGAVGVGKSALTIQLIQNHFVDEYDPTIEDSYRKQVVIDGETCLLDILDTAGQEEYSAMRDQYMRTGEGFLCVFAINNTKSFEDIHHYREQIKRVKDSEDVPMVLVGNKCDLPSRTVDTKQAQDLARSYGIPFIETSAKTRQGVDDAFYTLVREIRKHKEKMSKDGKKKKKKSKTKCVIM
KRAS G12V, sequence (P62937 whole entry): as the sequence (P62937 whole entry) above

Compound	IC50 (KRAS G13D) [nM]	IC50 (KRAS G12C) [nM]	IC50 (NRAS G12C) [nM]	IC50 (KRAS G12D) [nM]	EC50 (AsPC-1 (K-Ras G12D) [1]) [nM]	IC50 (KRAS G12S) [nM]	IC50 (AsPC-1 (K-Ras G12D) [2]) [nM]	IC50 (KRAS G13C) [nM]	IC50 (KRAS WT) [nM]	IC50 (KRAS G12V) [nM]	IC50 (KRAS G13D; read-out: KRAS G13D FRET IC50) [nM]	IC50 (KRAS G12C; [3]) [nM]	IC50 (NRAS G12C; [4]) [nM]	IC50 (KRAS G12D; read-out: KRAS G12D FRET IC50) [nM]	IC50 (KRAS G12S; read-out: KRAS G12S FRET IC50) [nM]	IC50 (KRAS G13C; read-out: KRAS G13C FRET IC50) [nM]	IC50 (KRAS WT; read-out: KRAS WT FRET IC50) [nM]	IC50 (KRAS G12V; read-out: KRAS G12V FRET IC50) [nM]	IC50 (AsPC-1 (K-Ras G12D) [2]; K-Ras G12D, 5-day treatment) [nM]
CCn1c(-c2cnccc2COC)c2c3cc(ccc31)-c1cc(O)cc(c1)C[C@H](NC(=O)[C@H](C(C)C)N(C)C(=O)CN(C)C(=O)[C@H]1N[C@@H]1c1ccc(OC)cc1)C(=O)N1CCC[C@H](N1)C(=O)OCC(C)(C)C2 [Example 97]	100 to 1000	10 to 100	10 to 100	100 to 1000	< 5000	10 to 100	1000 to 10000	10 to 100	10 to 100	10 to 100	–	–	–	–	–	–	–	–	–
CCn1c(-c2cnccc2COC)c2c3cc(ccc31)-c1cc(O)cc(c1)C[C@H](NC(=O)[C@H](C(C)C)N(C)C(=O)CN1C(=O)[C@H]3N[C@H]3C1=O)C(=O)N1CCC[C@H](N1)C(=O)OCC(C)(C)C2 [Example 98]	–	–	–	–	–	–	–	–	–	–	1000 to 10000	100 to 1000	1000 to 10000	1000 to 10000	1000 to 10000	100 to 1000	100 to 1000	1000 to 10000	–
CCn1c(-c2cnccc2COC)c2c3cc(ccc31)-c1cc(O)cc(c1)C[C@H](NC(=O)[C@@H](CN(C)C(=O)[C@H]1CN1)C(C)C)C(=O)N1CCC[C@H](N1)C(=O)OCC(C)(C)C2 [Example 99]	–	–	–	–	–	–	–	–	–	–	> 10000	1000 to 10000	> 10000	> 10000	> 10000	> 10000	> 10000	1000 to 10000	–
CCn1c(-c2cnccc2COC)c2c3cc(ccc31)-c1cc(O)cc(c1)C[C@H](NC(=O)[C@H](C(C)C)N(C)C(=O)CN(C)C(=O)[C@H]1N[C@H]1C1CC1)C(=O)N1CCC[C@H](N1)C(=O)OCC(C)(C)C2 [Example 104]	100 to 1000	10 to 100	10 to 100	100 to 1000	< 5000	10 to 100	1000 to 10000	10 to 100	100 to 1000	100 to 1000	–	–	–	–	–	–	–	–	–
CCn1c(-c2cnccc2COC)c2c3cc(ccc31)-c1cc(O)cc(c1)C[C@H](NC(=O)[C@H](C(C)C)N(C)C(=O)CN(C)C(=O)[C@@H]1N[C@@H]1C)C(=O)N1CCC[C@H](N1)C(=O)OCC(C)(C)C2 [Example 105]	100 to 1000	10 to 100	10 to 100	100 to 1000	< 5000	10 to 100	1000 to 10000	10 to 100	10 to 100	100 to 1000	–	–	–	–	–	–	–	–	–
CCn1c(-c2cccnc2[C@H](C)OC)c2c3cc(ccc31)-c1cc(O)cc(c1)C[C@H](NC(=O)[C@H](C(C)C)N1CCC3(CC(C(=O)[C@H]4CN4)C3)C1=O)C(=O)N1CCC[C@H](N1)C(=O)OCC(C)(C)C2 (some centres unmarked) [Example 115]	–	–	–	–	–	–	–	–	–	–	10 to 100	< 10	< 10	100 to 1000	100 to 1000	10 to 100	10 to 100	100 to 1000	> 10000
CCn1c(-c2cnccc2COC)c2c3cc(ccc31)-c1cc(O)cc(c1)C[C@H](NC(=O)[C@H](C(C)C)N(C)C(=O)CCNC1=NCCO1)C(=O)N1CCC[C@H](N1)C(=O)OCC(C)(C)C2 [Example 120]	–	–	–	–	–	–	–	–	–	–	10 to 100	100 to 1000	100 to 1000	100 to 1000	100 to 1000	10 to 100	10 to 100	100 to 1000	–
CCn1c(-c2cccnc2[C@H](C)OC)c2c3cc(ccc31)-c1cccc(c1)C[C@H](NC(=O)[C@H](C(C)C)N1CC[C@@H](CN=C=NCCOC)C1)C(=O)N1CCC[C@H](N1)C(=O)OCC(C)(C)C2 [Example 121]	–	–	–	–	–	–	–	–	–	–	> 10000	100 to 1000	100 to 1000	1000 to 10000	1000 to 10000	100 to 1000	100 to 1000	1000 to 10000	–
